Experiments:
HCT-116 [1] = test: Antiproliferative activity against MTAP-deleted human HCT-116 cells assessed as effect on cell viability incubated for 6 days by Celltiter-Glo luminescent cell viability assay; assay type: functional, cell-based; conditions: HCT-116, 144 h
HCT-116 [2] = test: Antiproliferative activity against human HCT-116 cells harboring wildtype MTAP assessed as effect on cell viability incubated for 6 days by Celltiter-Glo luminescent cell viability assay; assay type: functional, cell-based; conditions: HCT-116, 144 h
human MDR1 (P-gp) = test: Efflux ratio of permeability across basolateral to apical side over apical to basolateral side in MDCK cells transfected with human MDR1 in absence of elacridar; conditions: dog
[3] = Metabolic stability in human liver microsomes assessed as intrinsic clearance at 0.5 uM incubated for 40 mins in presence of NADPH; assay type: ADME, Microsome; conditions: read-out: CLH
[4] = Metabolic stability in mouse liver microsomes assessed as intrinsic clearance at 0.5 uM incubated for 40 mins in presence of NADPH; assay type: ADME, Microsome; conditions: read-out: CLH
[5] = target: T1, Nuclear receptor subfamily 1 group I member 2 (Homo sapiens, UniProt O75469); test: Activation of human PXR in human HepG2 cells co-transfected with CYP3A4-luciferase at 10 uM incubated for 1 day relative to control; conditions: hepg2, 24 h
T1 sequence (O75469 whole entry): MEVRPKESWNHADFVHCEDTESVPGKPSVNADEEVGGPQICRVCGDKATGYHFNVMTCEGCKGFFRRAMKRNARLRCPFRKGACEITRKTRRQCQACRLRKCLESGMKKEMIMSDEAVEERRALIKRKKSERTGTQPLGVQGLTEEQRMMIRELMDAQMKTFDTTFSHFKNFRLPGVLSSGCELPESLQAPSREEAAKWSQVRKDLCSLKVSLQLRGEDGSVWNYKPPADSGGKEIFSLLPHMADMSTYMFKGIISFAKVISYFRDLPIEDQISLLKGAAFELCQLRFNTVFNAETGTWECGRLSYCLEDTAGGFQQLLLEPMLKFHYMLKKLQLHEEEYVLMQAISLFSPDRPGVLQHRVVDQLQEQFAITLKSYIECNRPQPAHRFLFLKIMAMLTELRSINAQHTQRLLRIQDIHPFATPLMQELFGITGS

[6] = Clearance in CD-1 mouse at 1 mg/kg, iv; conditions: in vivo
[7] = Half-life in CD-1 mouse at 1 mg/kg, iv; assay type: ADME, organism-based; conditions: in vivo
[8] = Oral bioavailability in CD-1 mouse at 5 mg/kg administered as 1% Tween 80, 2% HPMC, 97% water/methane sulfonic acid, pH 2.0 formulation; assay type: ADME, organism-based; conditions: in vivo
[9] = Protein binding in mouse plasma assessed as unbound fraction by ultracentrifugation
[10] = Unbound clearance in CD-1 mouse at 1 mg/kg, iv; assay type: ADME, organism-based; conditions: in vivo
PRMT5/MEP50 complex = PRMT5/MEP50 complex (Homo sapiens, UniProt O14744)
Description: Inhibition of PRMT5/MEP50 (unknown origin) preincubated with compound for 24 hrs in presence of SAM and MTA followed by Histone H4 (1-21)-Lys(Biotin) peptide addition and measured after 2 hrs by MTase-Glo reagent based assay

in vivo [11] = conditions: CD-1, mouse, iv, 1 mg/kg
CYP3A4 = CYP3A4 (Homo sapiens, UniProt P08684); test: in vitro; conditions: human liver microsomes, probe midazolam
[12] = AUC (0 to t) in CD-1 mouse at 5 mg/kg, po administered as 1% Tween 80, 2% HPMC, 97% water/methane sulfonic acid, pH 2.0 formulation; assay type: ADME, organism-based; conditions: in vivo
[13] = Drug metabolism in human hepatocytes assessed as 3-methylquinoline ring system oxidation mediated metabolite formation; assay type: ADME, cell-based, Hepatocyte
[14] = Drug metabolism in mouse hepatocytes assessed as 3-methylquinoline ring system oxidation mediated metabolite formation; assay type: ADME, cell-based, Hepatocyte
BXPC-3 = test: Antiproliferative activity against human BXPC-3 cells assessed as effect on cell viability; assay type: functional, cell-based
U-87 MG = test: Antiproliferative activity against human U-87 MG cells assessed as effect on cell viability; assay type: functional, cell-based, U-87MG ATCC
DOHH-2 = test: Antiproliferative activity against human DOHH-2 cells assessed as effect on cell viability; assay type: functional, cell-based
[15] = Metabolic stability in rat liver microsomes assessed as intrinsic clearance; assay type: ADME, Microsome; conditions: time 40 min, read-out: CLH
[16] = Metabolic stability in dog liver microsomes assessed as intrinsic clearance; assay type: ADME, Canis lupus familiaris, Microsome; conditions: read-out: CLH
[17] = Metabolic stability in human hepatocytes assessed as intrinsic clearance measured per 10^6 cells; assay type: ADME, cell-based, Hepatocyte; conditions: read-out: CLH
[18] = Metabolic stability in rat hepatocytes assessed as intrinsic clearance measured per 10^6 cells; assay type: ADME, cell-based, Hepatocyte; conditions: read-out: CLH
[19] = Metabolic stability in mouse hepatocytes assessed as intrinsic clearance measured per 10^6 cells; assay type: ADME, cell-based, Hepatocyte; conditions: read-out: CLH
[20] = Metabolic stability in dog hepatocytes assessed as intrinsic clearance measured per 10^6 cells; assay type: ADME, cell-based, Canis lupus familiaris, Hepatocyte; conditions: read-out: CLH
[21] = Protein binding in human plasma assessed as unbound fraction by ultracentrifugation
[22] = Protein binding in dog plasma assessed as unbound fraction by ultracentrifugation
[23] = Clearance in Sprague-Dawley rat at 0.5 mg/kg, iv; conditions: in vivo
[24] = Unbound clearance in Sprague-Dawley rat at 0.5 mg/kg, iv; assay type: ADME, organism-based; conditions: in vivo
[25] = Volume of distribution at steady state in Sprague-Dawley rat at 0.5 mg/kg, iv; conditions: in vivo
[26] = Half-life in Sprague-Dawley rat at 0.5 mg/kg, iv; assay type: ADME, organism-based; conditions: in vivo
[27] = Clearance in Beagle dog at 0.5 mg/kg, iv; conditions: in vivo
[28] = Unbound clearance in Beagle dog at 0.5 mg/kg, iv; assay type: ADME, organism-based, Canis lupus familiaris; conditions: in vivo
[29] = Half-life in Beagle dog at 0.5 mg/kg, iv; assay type: ADME, organism-based, Canis lupus familiaris; conditions: in vivo
[30] = Oral bioavailability in Beagle dog at 2 mg/kg administered as 1% Tween 80, 2% HPMC, 97% water/methanesulfonic acid, pH 2.0 formulation; assay type: ADME, organism-based, Canis lupus familiaris; conditions: in vivo
in vivo [31] = conditions: beagle, dog, iv, 0.5 mg/kg

Chain of CYP3A4 (P08684 whole entry): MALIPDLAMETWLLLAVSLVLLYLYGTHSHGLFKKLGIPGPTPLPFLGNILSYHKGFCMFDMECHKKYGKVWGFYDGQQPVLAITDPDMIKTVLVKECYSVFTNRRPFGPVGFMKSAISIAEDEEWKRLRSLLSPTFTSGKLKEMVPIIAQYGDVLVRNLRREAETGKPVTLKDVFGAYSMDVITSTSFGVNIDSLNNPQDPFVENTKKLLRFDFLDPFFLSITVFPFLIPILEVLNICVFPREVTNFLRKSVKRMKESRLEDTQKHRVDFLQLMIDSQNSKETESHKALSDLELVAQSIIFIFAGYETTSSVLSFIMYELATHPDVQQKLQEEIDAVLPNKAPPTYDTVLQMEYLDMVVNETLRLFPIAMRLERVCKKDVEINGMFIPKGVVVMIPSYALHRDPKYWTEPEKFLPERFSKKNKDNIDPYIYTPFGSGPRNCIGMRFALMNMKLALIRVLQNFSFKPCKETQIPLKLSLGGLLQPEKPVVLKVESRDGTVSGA
Chain of PRMT5/MEP50 complex (O14744 whole entry): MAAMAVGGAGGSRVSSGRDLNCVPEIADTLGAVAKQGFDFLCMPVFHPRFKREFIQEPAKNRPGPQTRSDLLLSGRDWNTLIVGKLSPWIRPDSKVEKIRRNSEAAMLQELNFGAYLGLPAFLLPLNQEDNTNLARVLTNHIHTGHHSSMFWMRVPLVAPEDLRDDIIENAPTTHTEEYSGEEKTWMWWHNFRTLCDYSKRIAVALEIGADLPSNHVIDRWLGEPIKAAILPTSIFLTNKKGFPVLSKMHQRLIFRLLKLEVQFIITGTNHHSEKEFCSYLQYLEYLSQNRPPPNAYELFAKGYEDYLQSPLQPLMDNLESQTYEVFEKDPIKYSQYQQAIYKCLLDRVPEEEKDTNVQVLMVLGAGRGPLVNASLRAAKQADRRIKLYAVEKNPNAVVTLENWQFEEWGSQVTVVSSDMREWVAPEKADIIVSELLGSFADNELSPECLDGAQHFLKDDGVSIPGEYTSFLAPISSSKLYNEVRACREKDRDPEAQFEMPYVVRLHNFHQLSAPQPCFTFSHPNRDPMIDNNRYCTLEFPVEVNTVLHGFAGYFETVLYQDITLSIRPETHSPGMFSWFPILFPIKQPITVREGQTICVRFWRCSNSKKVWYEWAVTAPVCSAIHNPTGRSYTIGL
Chain of PRMT5/MEP50 complex (Q9BQA1 whole entry, further chain): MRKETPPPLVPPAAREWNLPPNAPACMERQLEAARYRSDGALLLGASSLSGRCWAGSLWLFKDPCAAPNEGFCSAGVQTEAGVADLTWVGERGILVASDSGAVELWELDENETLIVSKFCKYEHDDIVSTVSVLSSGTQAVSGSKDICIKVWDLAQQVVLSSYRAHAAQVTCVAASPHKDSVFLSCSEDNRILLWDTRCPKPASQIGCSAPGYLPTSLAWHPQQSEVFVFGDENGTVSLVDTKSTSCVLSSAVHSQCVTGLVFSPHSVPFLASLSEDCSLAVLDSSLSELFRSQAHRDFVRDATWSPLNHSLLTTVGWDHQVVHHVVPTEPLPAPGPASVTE

Structure (SMILES): CN(Cc1ccc(C(F)(F)F)cn1)C(=O)c1ccc2nc(N)c3c(c2c1)COC3
- IC50 (HCT-116 [1]): 426 nM
- IC50 (HCT-116 [2]): 8790 nM
- efflux ratio (human MDR1 (P-gp)): 23
- microsomal CLint at 0.5 µM [3]: 14 µL/min/mg
- microsomal CLint at 0.5 µM [4]: 19 µL/min/mg
- Activity [5]: < 20%
- clearance [6]: 8.33 mL/min/kg
- half-life [7]: 2.2 h
- bioavailability [8]: 64%
- fraction unbound ([9]; mouse plasma): 0.21
- CL free [10]: 40 mL/min/kg
- Ki (PRMT5/MEP50 complex): 0.1 nM
- Vd (in vivo [11]): 0.9 L/kg
- inhibition at 30 min, 10 µM (CYP3A4): < 20%

Structure (SMILES): Nc1nc2ccc(C(=O)N3CCOC[C@@H]3c3ccc(C(F)(F)F)cc3)cc2c2c1COC2
- IC50 (HCT-116 [1]): 233 nM
- IC50 (HCT-116 [2]): 4810 nM
- efflux ratio (human MDR1 (P-gp)): 13
- microsomal CLint at 0.5 µM [3]: 50 µL/min/mg
- microsomal CLint at 0.5 µM [4]: 78 µL/min/mg
- Activity [5]: < 20%
- clearance [6]: 6.67 mL/min/kg
- half-life [7]: 2.7 h
- bioavailability [8]: 61%
- fraction unbound ([9]; mouse plasma): 0.05
- CL free [10]: 130 mL/min/kg
- Ki (PRMT5/MEP50 complex): < 0.1 nM
- Vd (in vivo [11]): 1.6 L/kg
- inhibition at 30 min, 10 µM (CYP3A4): < 20%

Structure (SMILES): Nc1nc2ccc(C(=O)N3CCOC[C@@H]3c3ccc(C(F)(F)F)cn3)cc2c2c1COC2
- IC50 (HCT-116 [1]): 395 nM
- IC50 (HCT-116 [2]): 9430 nM
- efflux ratio (human MDR1 (P-gp)): 33
- microsomal CLint at 0.5 µM [3]: 14 µL/min/mg
- microsomal CLint at 0.5 µM [4]: 16 µL/min/mg
- Activity [5]: < 20%
- clearance [6]: 6.67 mL/min/kg
- half-life [7]: 2.1 h
- bioavailability [8]: 78%
- fraction unbound ([9]; mouse plasma): 0.18
- CL free [10]: 36.7 mL/min/kg
- Ki (PRMT5/MEP50 complex): < 0.1 nM
- Vd (in vivo [11]): 1.2 L/kg
- inhibition at 30 min, 10 µM (CYP3A4): < 20%

Structure (SMILES): C[C@H](c1ncccn1)N(Cc1ccc(C(F)(F)F)cn1)C(=O)c1ccc2nc(N)c3c(c2c1)COC3
- IC50 (HCT-116 [1]): 14 nM
- IC50 (HCT-116 [2]): 78 nM
- efflux ratio (human MDR1 (P-gp)): 63
- microsomal CLint at 0.5 µM [3]: 129 µL/min/mg
- microsomal CLint at 0.5 µM [4]: 278 µL/min/mg
- Activity [5]: 13%
- clearance [6]: 38.3 mL/min/kg
- half-life [7]: 0.9 h
- bioavailability [8]: 8%
- fraction unbound ([9]; mouse plasma): 0.23
- CL free [10]: 167 mL/min/kg
- Ki (PRMT5/MEP50 complex): < 0.1 nM
- Vd (in vivo [11]): 1.4 L/kg
- inhibition at 30 min, 10 µM (CYP3A4): 4%

Structure (SMILES): Nc1nc2ccc(C(=O)N3CCOC[C@@H]3c3ccc(C(F)(F)F)nc3)cc2c2c1COC2
- IC50 (HCT-116 [1]): 533 nM
- IC50 (HCT-116 [2]): 8530 nM
- efflux ratio (human MDR1 (P-gp)): 36
- microsomal CLint at 0.5 µM [3]: 14 µL/min/mg
- microsomal CLint at 0.5 µM [4]: 17 µL/min/mg
- Activity [5]: < 20%
- clearance [6]: 6.67 mL/min/kg
- half-life [7]: 2.5 h
- bioavailability [8]: 46%
- fraction unbound ([9]; mouse plasma): 0.27
- CL free [10]: 25 mL/min/kg
- Ki (PRMT5/MEP50 complex): 0.2 nM
- Vd (in vivo [11]): 1 L/kg
- inhibition at 30 min, 10 µM (CYP3A4): < 20%

Structure (SMILES): C[C@@H]1COC[C@H](c2ccc(C(F)(F)F)cc2)N1C(=O)c1cc2c3c(c(N)nc2cn1)COC3
- IC50 (HCT-116 [1]): 7 nM
- IC50 (HCT-116 [2]): 264 nM
- efflux ratio (human MDR1 (P-gp)): 5
- microsomal CLint at 0.5 µM [3]: 43 µL/min/mg
- microsomal CLint at 0.5 µM [4]: 178 µL/min/mg
- Activity [5]: < 20%
- clearance [6]: 18.3 mL/min/kg
- half-life [7]: 2.6 h
- bioavailability [8]: 51%
- fraction unbound ([9]; mouse plasma): 0.08
- CL free [10]: 233 mL/min/kg
- Ki (PRMT5/MEP50 complex): < 0.1 nM
- Vd (in vivo [11]): 3 L/kg
- inhibition at 30 min, 10 µM (CYP3A4): < 20%

Structure (SMILES): Cc1cc2cc(C(=O)N(Cc3ccc(C(F)(F)F)cn3)[C@H](C)c3ncccn3)ccc2nc1N
- IC50 (HCT-116 [1]): 40 nM
- IC50 (HCT-116 [2]): 854 nM
- microsomal CLint at 0.5 µM [3]: 19 µL/min/mg
- microsomal CLint at 0.5 µM [4]: 90 µL/min/mg
- AUC(0-t) [12]: 1.01 µM·h
- Drug metabolism [13]: metabolite_detected
- Drug metabolism [14]: metabolite_detected
- fraction unbound ([9]; plasma): 0.12
- CL free [10]: 317 mL/min/kg
- IC50 (BXPC-3): 73 nM
- IC50 (U-87 MG): 65 nM
- IC50 (DOHH-2): 17 nM
- microsomal CLint at 0.5 µM [15]: 25 µL/min/mg
- microsomal CLint [16]: 25 µL/min/mg
- hepatocyte CLint [17]: 9 µL/min/1e6 cells
- hepatocyte CLint [18]: 11 µL/min/1e6 cells
- hepatocyte CLint [19]: 18 µL/min/1e6 cells
- hepatocyte CLint [20]: 12 µL/min/1e6 cells
- fraction unbound [21]: 0.1
- fraction unbound [22]: 0.2
- clearance [23]: 26.7 mL/min/kg
- CL free [24]: 167 mL/min/kg
- Vd [25]: 1.3 L/kg
- half-life [26]: 2.1 h
- clearance [27]: 25 mL/min/kg
- CL free [28]: 123 mL/min/kg
- half-life [29]: 1.2 h
- bioavailability [30]: 45%
- Vd (in vivo [31]): 1.9 L/kg

Structure (SMILES): CCN(Cc1ccc(C(F)(F)F)cn1)C(=O)c1ccc2nc(N)c3c(c2c1)COC3
- IC50 (HCT-116 [1]): 100 nM
- IC50 (HCT-116 [2]): 3210 nM
- efflux ratio (human MDR1 (P-gp)): 10
- microsomal CLint at 0.5 µM [3]: 30 µL/min/mg
- microsomal CLint at 0.5 µM [4]: 45 µL/min/mg
- Activity [5]: < 20%
- clearance [6]: 11.7 mL/min/kg
- half-life [7]: 2 h
- bioavailability [8]: 95%
- fraction unbound ([9]; mouse plasma): 0.12
- CL free [10]: 96.7 mL/min/kg
- Ki (PRMT5/MEP50 complex): < 0.1 nM
- Vd (in vivo [11]): 1.5 L/kg
- inhibition at 30 min, 10 µM (CYP3A4): < 20%
